The values below come from patent US6395288B1, “Subversion of bacterial resistance by low solubility antibiotics” (Kent State University, priority 1998, dated 2002).

Data set [1] can be described thus: Local (cellular) toxicity in vitro, fluorescein assay. To be noted: FS-TET disks at solubility limit (TET-HCl 20 mg/mL, TET free base 1 mg/mL).
The subject of data set [2] is MDR isotype of S. aureus (ATCC 27659). As to the kind of experiment: Agar diffusion zone of growth inhibition, antibiotics delivered from fibrin sealant. Type of data set: cell-based, Staphylococcus aureus. To be noted: in vitro, 6 mm wells filled with fibrin sealant with antibiotic, 18 h at 37° C., FIG. 2. Here is the method:
The method used was that of Barry,Am. Journal of Clinical Pathology, 53:149 (1970), incorporated herein by reference, with modifications. Briefly, antibiotic bioactivity was assessed by agar diffusion where the agar hydrogel was seeded with bacteria prior to solidification. Several 6 mm wells were cut into the agar, the plugs were removed by aspiration and the wells were filled with the fibrin sealant hydrogel containing various concentrations of low-solubility antibiotics. Cultures were incubated for 18 h at 37° C. Zones of growth inhibition—the area about the well where diffused antibiotic prevents growth of seeded bacteria—were recorded to the nearest mm and graphed in FIG. 2. The zone of inhibition required to document bacterial susceptibility to a particular concentration of antibiotic is indicated by a black horizontal bar. […] Moreover, increasing the local concentration of low solubility antibiotics released from fibrin sealant effectively overcomes S. aureus resistance in vitro.

Data set [3] concerns non-multi-drug resistant (NMDR) peritonitis. As to the kind of experiment: Prophylactic protection against lethal NMDR peritonitis in mice. Type of data set: in vivo. The settings on record: prophylactic treatment, 500 mg/kg.

Take `CN(C)[C@@H]1C(=O)C(C(N)=O)=C(O)[C@@]2(O)C(=O)C3=C(O)c4c(O)cccc4[C@@](C)(O)[C@H]3C[C@@H]12.Cl` [TET-HCl]: the “local (cellular) toxicity, fluorescein assay” value in data set [1] is reported as “acutely toxic”.

Take `[H]/N=C(/N)N[C@H]1[C@H](O)[C@@H](O)[C@H](O[C@@H]2O[C@@H](C)[C@](O)(C=O)[C@H]2O[C@@H]2O[C@@H](CO)[C@H](O)[C@@H](O)[C@@H]2NC)[C@@H](N/C(N)=N\[H])[C@@H]1O` [streptomycin]: the “growth inhibition (zone of growth inhibition)” value in data set [2] is recorded as “appeared effective in vitro”.

On to `CN(C)[C@@H]1C(O)=C(C(N)=O)C(=O)[C@@]2(O)C(O)=C3C(=O)c4c(O)cccc4[C@@](C)(O)[C@H]3C[C@@H]12` [tetracycline], for which the “protection against a lethal dose of NMDR peritonitis” value in data set [3] was 100%.
